Experimental data published in patent US10381110B2, “Molecules” (University of Dundee, priority 2010, dated 2019).
Where a name gives a salt, the structure may show the parent alone. Read-outs that look alike come from different tables or passages of the source.

What was measured:
dopamine D5 = dopamine D5 (Homo sapiens, UniProt P21918); assay: Secondary radioligand binding assay (Ki); details: read-out: Experimental Receptor Binding Data-Ki D5; Table 25, GPCR panel
Description: (§1) Radioligand is diluted to five times the assay concentration (see Table 18) in Standard Binding Buffer. Typically, the assay concentration of radioligand is a value between one half the KD and the KD of a particular radioligand at its target. 50 μl aliquots of radioligand are dispensed into the wells of a 96-well plate containing 100 μl of Standard Binding Buffer. Then, duplicate 50 μl aliquots of the test and reference compound dilutions are added.
The 250 μl reactions are incubated at room temperature and shielded from light (to prevent photolysis of light-sensitive ligands) for 1.5 hours, then harvested by rapid filtration onto Whatman GF/B glass fiber filters pre-soaked with 0.3% polyethyleneimine using a 96-well Brandel harverster. Four rapid 500 μl washes are performed with chilled Standard Binding Buffer to reduce non-specific binding. Filters are placed in 6 ml scintillation tubes and allowed to dry overnight. The next day, 4 ml of EcoScint scintillation cocktail (National Diagnostics) are added to each tube. The tubes are capped, labeled, and counted by liquid scintillation counting. […] The filter mats are dried, then scintillant is melted onto the filters and the radioactivity retained on the filters is counted in a Microbeta scintillation counter. […]

α1B (Alpha1B) = biological target: T1, α1B (Alpha1B) (Homo sapiens, UniProt P35368); assay: Secondary radioligand binding assay (Ki)
T1 sequence (P35368 1-520): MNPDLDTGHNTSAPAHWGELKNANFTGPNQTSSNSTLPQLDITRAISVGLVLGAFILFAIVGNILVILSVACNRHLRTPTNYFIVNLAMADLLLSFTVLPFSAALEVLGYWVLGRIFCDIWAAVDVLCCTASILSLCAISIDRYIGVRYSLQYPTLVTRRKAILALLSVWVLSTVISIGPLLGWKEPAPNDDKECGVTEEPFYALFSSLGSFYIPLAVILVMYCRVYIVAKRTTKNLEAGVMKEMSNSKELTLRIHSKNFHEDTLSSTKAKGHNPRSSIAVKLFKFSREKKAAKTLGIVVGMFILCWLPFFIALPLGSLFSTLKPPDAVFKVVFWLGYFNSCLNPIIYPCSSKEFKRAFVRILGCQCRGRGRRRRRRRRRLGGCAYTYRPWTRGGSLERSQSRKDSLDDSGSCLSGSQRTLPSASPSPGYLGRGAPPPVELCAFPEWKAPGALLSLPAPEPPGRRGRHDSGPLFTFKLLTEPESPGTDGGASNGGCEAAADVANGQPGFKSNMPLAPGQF
Description: as §1
(§2) The 250 μl reactions are incubated at room temperature and shielded from light (to prevent photolysis of light-sensitive ligands) for 1.5 hours, then harvested by rapid filtration onto Whatman GF/B glass fiber filters pre-soaked with 0.3% polyethyleneimine using a 96-well Brandel harverster. Four rapid 500 μl washes are performed with chilled Standard Binding Buffer to reduce non-specific binding. Filters are placed in 6 ml scintillation tubes and allowed to dry overnight. The next day, 4 ml of EcoScint scintillation cocktail (National Diagnostics) are added to each tube. The tubes are capped, labeled, and counted by liquid scintillation counting. […] The filter mats are dried, then scintillant is melted onto the filters and the radioactivity retained on the filters is counted in a Microbeta scintillation counter.
(§3) Raw data (dpm) representing total radioligand binding (i.e. specific+non-specific binding) are plotted as a function of the logarithm of the molar concentration of the competitor (i.e. test or reference compound).
(§4) Adrenergic Receptors: α1A, α1B, α2A, α2B, α2C, β1, β2, β3
(§5) Membrane Fraction Source: Transiently or stably transfected cell lines (e.g. HEK293, COS, CHO, NIH3T3)
(§6) The method is carried out in the manner described for the serotonin receptor assay above, except where described below. Eleven dilutions (5× assay concentration) of the test and reference (see Table 20) compounds are prepared in the appropriate buffer by serial dilution, as previously described. Radioligand is diluted to five times the assay concentration (see Table 21) in the appropriate buffer.
(§7) The 250 μl reactions are incubated at room temperature and shielded from light (to prevent photolysis of light-sensitive ligands) for 1 hour (for α1 receptors, 40 min for α2 receptors, and 1.5 hours for β receptors), then harvested by rapid filtration onto Whatman GF/B glass fiber filters pre-soaked with 0.3% polyethyleneimine using a 96-well Brandel harverster. Four rapid 500-μl washes are performed with chilled distilled water (for α1 and β receptors) or 0.1% polyethyleneimine (for α2 receptors) to reduce non-specific binding. Filters are placed in 6 ml scintillation tubes and allowed to dry overnight and the samples are treated to obtain data as described above.

Alpha1D = biological target: T2, Alpha1D (Homo sapiens, UniProt P25100); assay: Secondary radioligand binding assay (Ki)
T2 sequence (P25100 1-572): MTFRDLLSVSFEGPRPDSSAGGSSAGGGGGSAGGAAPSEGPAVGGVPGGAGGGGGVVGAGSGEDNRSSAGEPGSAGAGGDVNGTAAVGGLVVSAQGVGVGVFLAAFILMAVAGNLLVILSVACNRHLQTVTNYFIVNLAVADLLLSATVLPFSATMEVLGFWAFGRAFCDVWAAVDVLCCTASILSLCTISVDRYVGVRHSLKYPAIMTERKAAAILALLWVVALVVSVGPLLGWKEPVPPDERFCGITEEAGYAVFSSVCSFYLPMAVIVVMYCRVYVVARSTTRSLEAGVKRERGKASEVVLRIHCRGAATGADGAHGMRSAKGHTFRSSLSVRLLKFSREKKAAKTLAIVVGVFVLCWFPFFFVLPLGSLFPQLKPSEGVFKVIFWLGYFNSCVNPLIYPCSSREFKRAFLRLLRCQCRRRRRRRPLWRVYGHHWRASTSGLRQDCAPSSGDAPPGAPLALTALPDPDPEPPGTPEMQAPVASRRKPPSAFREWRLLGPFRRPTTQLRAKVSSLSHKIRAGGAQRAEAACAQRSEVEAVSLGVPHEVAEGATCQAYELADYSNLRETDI
Description: as §1, §2, §3, §4, §5, §6, §7

5-HT1B = 5-HT1B (Homo sapiens, UniProt P28222); assay: Secondary radioligand binding assay (Ki)
Description: (§8) Assay Buffer: Standard Binding Buffer (50 mM Tris-HCl, 10 mM MgCl2, 1 mM EDTA, pH 7.4)
(§9) Membrane Fraction Source: Transiently or stably transfected cell lines (e.g., HEK293, COS, CHO, NIH3T3)
as §1, §2, §3

Alpha1B = biological target: T3, Alpha1B (Homo sapiens, UniProt P35368); assay: Primary radioligand binding assay (NIMH PDSP); details: primary radiobinding assay, [3H]Prazosin; further: test concentration or dose not given here
T3 sequence (P35368 1-520): T1 sequence (P35368 1-520)

5-HT2C = biological target: T4, 5-HT2C (Homo sapiens, UniProt P28335); assay: Secondary radioligand binding assay (Ki)
T4 sequence (P28335 33-458): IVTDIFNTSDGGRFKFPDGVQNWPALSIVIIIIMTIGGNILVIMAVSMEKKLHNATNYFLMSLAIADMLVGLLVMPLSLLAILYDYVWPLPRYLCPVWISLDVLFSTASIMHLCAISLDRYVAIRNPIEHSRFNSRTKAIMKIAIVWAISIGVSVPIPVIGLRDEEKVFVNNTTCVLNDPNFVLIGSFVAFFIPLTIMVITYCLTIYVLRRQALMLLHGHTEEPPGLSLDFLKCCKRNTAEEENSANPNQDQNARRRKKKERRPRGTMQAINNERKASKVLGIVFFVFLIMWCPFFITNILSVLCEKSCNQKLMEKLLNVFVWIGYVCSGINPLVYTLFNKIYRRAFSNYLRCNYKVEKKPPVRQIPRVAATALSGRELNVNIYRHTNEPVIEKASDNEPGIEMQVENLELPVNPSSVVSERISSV
Description: as §8, §9, §1
(§10) The 250 μl reactions are incubated at room temperature and shielded from light (to prevent photolysis of light-sensitive ligands) for 1.5 hours, then harvested by rapid filtration onto Whatman GF/B glass fiber filters pre-soaked with 0.3% polyethyleneimine using a 96-well Brandel harverster. Four rapid 500 μl washes are performed with chilled Standard Binding Buffer to reduce non-specific binding. Filters are placed in 6 ml scintillation tubes and allowed to dry overnight. […] The tubes are capped, labeled, and counted by liquid scintillation counting. […] The filter mats are dried, then scintillant is melted onto the filters and the radioactivity retained on the filters is counted in a Microbeta scintillation counter. […]

5-HT2A = 5-HT2A (Homo sapiens, UniProt P28223); assay: Secondary radioligand binding assay (Ki)
Description: as §8, §9, §1, §2, §3

5-HT1D = 5-HT1D (Homo sapiens, UniProt P28221); assay: Secondary radioligand binding assay (Ki)
Description: as §8, §9, §1, §2, §3

5-HT7 = 5-HT7 (Homo sapiens, UniProt P34969); assay: Secondary radioligand binding assay (Ki)
Description: as §8, §9, §1, §2, §3

dopamine D1 = dopamine D1 (Homo sapiens, UniProt P21728); assay: Secondary radioligand binding assay (Ki)
Description: as §1, §2, §3
Assay Buffers: Dopamine Binding Buffer (50 mM NaCl, 50 mM HEPES-HCl, 5 mM MgCl2, 0.5 mM EDTA, pH 7.4)
as §5
The method is carried out in the manner described for the serotonin receptor assay above. Eleven dilutions (5× assay concentration) of the test and reference (see Table 19) compounds are prepared in Dopamine Binding Buffer by serial dilution, as previously described. Radioligand is diluted to five times the assay concentration (see Table 20) in Dopamine Binding Buffer.

5-HT2B = 5-HT2B (Homo sapiens, UniProt P41595); assay: Secondary radioligand binding assay (Ki)
Description: as §8, §9, §1, §2, §3

5-HT3 = biological target: T5, 5-HT3 (Homo sapiens, UniProt P46098); assay: Secondary radioligand binding assay (Ki)
T5 sequence (P46098 24-478): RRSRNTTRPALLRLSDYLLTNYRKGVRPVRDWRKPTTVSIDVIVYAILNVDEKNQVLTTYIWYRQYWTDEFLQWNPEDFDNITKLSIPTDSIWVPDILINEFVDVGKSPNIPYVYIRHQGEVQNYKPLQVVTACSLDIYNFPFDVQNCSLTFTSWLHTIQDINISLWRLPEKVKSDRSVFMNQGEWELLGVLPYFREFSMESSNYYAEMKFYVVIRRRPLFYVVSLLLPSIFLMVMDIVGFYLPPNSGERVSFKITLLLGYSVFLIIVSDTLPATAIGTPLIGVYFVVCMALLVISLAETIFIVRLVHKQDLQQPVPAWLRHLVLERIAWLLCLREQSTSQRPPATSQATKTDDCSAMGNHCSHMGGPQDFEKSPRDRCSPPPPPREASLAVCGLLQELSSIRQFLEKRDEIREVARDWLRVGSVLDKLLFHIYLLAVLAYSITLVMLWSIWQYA
Description: as §8, §9, §1, §10

[1] = read-out: Experimental Receptor Binding Data-Ki ALPHA_1B, Table 25, GPCR panel
[2] = read-out: Experimental Receptor Binding Data-Ki ALPHA_1D, Table 25, GPCR panel
[3] = read-out: Experimental Receptor Binding Data-Ki D1, Table 25, GPCR panel

Sequence of 5-HT1B (P28222 whole entry, species assumed): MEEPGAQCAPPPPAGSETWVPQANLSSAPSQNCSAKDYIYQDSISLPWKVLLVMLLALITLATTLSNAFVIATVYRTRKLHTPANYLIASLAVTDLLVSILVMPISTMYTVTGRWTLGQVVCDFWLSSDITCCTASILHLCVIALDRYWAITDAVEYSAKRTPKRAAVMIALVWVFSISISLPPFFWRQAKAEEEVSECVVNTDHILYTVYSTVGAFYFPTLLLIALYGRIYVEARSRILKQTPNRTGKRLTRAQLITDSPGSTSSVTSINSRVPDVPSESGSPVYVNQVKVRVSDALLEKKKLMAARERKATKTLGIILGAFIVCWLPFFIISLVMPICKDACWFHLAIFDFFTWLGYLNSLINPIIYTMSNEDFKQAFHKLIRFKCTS
Sequence of 5-HT1D (P28221 whole entry, species assumed): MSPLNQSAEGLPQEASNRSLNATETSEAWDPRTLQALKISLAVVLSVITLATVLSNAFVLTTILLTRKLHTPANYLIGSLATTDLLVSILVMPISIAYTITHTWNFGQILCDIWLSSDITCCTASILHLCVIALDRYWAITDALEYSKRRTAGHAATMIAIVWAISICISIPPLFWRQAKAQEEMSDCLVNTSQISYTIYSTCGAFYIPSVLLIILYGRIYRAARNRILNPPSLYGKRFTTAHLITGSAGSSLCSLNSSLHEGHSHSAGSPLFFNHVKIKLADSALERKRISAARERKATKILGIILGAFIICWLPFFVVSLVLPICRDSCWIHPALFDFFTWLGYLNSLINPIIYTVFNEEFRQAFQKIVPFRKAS
Sequence of 5-HT2A (P28223 whole entry, species assumed): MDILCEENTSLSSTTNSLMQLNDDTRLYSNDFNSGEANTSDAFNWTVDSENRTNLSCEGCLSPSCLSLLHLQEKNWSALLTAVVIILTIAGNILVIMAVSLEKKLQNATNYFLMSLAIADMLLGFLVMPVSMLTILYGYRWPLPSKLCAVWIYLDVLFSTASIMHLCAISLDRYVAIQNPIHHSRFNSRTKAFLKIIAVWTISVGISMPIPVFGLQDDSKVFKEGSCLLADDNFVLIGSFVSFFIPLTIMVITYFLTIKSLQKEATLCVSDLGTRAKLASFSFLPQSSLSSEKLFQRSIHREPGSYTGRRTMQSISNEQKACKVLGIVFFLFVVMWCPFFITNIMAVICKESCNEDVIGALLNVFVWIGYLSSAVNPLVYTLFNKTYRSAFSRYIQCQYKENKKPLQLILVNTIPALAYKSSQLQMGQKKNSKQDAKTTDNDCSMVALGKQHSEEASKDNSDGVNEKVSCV
Sequence of 5-HT7 (P34969 whole entry, species assumed): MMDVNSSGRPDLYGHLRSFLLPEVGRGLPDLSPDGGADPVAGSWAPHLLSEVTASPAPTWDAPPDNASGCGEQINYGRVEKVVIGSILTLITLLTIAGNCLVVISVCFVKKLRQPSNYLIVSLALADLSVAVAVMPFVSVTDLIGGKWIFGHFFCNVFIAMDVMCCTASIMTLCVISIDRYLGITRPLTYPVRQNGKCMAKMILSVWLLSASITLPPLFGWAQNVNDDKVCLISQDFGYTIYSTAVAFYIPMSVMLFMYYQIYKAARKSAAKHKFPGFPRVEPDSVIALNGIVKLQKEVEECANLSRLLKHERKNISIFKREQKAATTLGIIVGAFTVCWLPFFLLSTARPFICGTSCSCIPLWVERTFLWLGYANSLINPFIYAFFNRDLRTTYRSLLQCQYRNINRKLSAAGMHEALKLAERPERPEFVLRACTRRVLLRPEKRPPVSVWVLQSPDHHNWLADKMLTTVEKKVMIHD
Sequence of 5-HT2B (P41595 whole entry, species assumed): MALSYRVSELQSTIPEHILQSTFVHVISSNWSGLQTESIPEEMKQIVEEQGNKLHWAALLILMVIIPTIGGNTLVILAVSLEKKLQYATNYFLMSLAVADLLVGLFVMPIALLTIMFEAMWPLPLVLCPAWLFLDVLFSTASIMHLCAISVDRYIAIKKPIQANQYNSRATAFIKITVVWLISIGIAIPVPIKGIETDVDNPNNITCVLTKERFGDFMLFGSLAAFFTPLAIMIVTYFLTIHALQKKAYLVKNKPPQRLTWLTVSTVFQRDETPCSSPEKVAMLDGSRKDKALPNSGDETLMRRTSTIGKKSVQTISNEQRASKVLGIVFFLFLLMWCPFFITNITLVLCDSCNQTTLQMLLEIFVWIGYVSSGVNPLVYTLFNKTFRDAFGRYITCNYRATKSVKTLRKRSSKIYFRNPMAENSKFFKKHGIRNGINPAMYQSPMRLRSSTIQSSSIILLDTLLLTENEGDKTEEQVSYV
Sequence of dopamine D1 (P21728 whole entry): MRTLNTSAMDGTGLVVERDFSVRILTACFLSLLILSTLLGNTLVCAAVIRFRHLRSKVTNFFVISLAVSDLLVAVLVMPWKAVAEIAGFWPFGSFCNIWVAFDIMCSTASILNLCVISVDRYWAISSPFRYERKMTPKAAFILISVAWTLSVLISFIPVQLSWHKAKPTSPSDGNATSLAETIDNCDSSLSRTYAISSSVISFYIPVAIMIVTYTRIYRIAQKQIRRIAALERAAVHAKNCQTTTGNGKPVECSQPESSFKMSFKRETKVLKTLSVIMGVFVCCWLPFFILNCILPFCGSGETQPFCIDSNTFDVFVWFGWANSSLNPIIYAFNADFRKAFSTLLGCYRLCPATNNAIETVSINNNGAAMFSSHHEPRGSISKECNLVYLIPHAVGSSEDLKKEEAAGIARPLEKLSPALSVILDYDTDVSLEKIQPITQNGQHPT
Sequence of dopamine D5 (P21918 whole entry): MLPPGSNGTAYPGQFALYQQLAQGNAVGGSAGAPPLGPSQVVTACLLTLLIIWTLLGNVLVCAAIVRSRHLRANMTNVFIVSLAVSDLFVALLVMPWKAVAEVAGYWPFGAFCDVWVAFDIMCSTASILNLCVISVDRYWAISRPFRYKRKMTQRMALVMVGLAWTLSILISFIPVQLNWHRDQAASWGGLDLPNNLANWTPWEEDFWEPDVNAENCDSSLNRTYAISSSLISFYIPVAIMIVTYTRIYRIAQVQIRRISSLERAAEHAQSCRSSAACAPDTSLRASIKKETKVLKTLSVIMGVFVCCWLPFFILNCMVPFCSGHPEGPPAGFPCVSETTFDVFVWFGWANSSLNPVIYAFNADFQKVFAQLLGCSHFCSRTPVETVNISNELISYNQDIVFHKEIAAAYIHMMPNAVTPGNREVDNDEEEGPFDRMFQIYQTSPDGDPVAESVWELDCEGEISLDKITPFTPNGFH

With COc1cc2c(cc1OC)C(=O)N(CCCCN1CCN(c3ccccc3OC)CC1)C2 [GFR-VII-285] the Ki (dopamine D5) was 1890 nM, the Ki (α1B (Alpha1B); [1]) was 19.3 nM and the Ki (α1B (Alpha1B); read-out: Kiα1B) was 19.3 nM. The Ki (Alpha1D; [2]) was 4.4 nM, the Ki (Alpha1D; read-out: Kiα1D) was 4.4 nM and the Ki (5-HT1B) was 130 nM. For the same compound, the “Alpha1B (% inh)” value (Alpha1B) was 101.5 % inh, the Ki (5-HT2C) was 3430 nM and the Ki (5-HT2A) was 270 nM. The Ki (5-HT1D) was 298 nM, the Ki (5-HT7) was 228 nM and the Ki (dopamine D1; [3]) was 531 nM. The Ki (5-HT2B) was 41 nM.
With CC1Cc2ccccc2N1C(=O)CN1CCN(Cc2ccccc2)CC1 (centres unmarked) [STT-00185638, 2-[-4-(benzyl)-piperazin-1-yl]-1-(2-methy-2,3-dihydro-indol-1-yl)-ethanone] the Ki (5-HT3) was 2110 nM, the “Alpha1B (% inh)” value (Alpha1B) was 16 % inh and the Ki (5-HT7) was 4360 nM. It also gave a Ki (dopamine D1) of 6360 nM and a Ki (5-HT2B) of 879 nM.
Work on COc1ccc2c(c1)C(=O)N(CCCN1CCN(c3ccccc3OC)CC1)C2 [GFR-VII-273] yielded a Ki (α1B (Alpha1B); [1]) of 323 nM, a Ki (α1B (Alpha1B); read-out: Kiα1B) of 323 nM and a Ki (Alpha1D; [2]) of 81.1 nM. The Ki (Alpha1D; read-out: Kiα1D) was 81.1 nM, the Ki (5-HT1B) was 362 nM and the “Alpha1B (% inh)” value (Alpha1B) was 102.5 % inh. The Ki (5-HT2A) was 956 nM, the Ki (5-HT1D) was 1000 nM and the Ki (5-HT7) was 545 nM. The Ki (5-HT2B) was 19 nM.
In the case of COc1ccc2c(c1)C(=O)N(CCN1CCN(c3ccccc3OC)CC1)C2 [GFR-VII-280-HCl], the Ki (α1B (Alpha1B)) is reported as 29.1 nM, the Ki (Alpha1D) is reported as 5.1 nM and the Ki (5-HT1B) is reported as 378 nM. For the same compound, the “Alpha1B (% inh)” value (Alpha1B) was 101 % inh, the Ki (5-HT1D) was 176 nM and the Ki (5-HT7) was 529 nM. It also gave a Ki (5-HT2B) of 242 nM.
Compound COc1ccc2c(c1)C(=O)N(CCN1CCN(c3ccccc3OC)CC1)C2 [GFR-VII-280] has a Ki (α1B (Alpha1B); [1]) of 38.7 nM, a Ki (α1B (Alpha1B); read-out: Kiα1B) of 38.7 nM and a Ki (Alpha1D; [2]) of 12.4 nM. The Ki (Alpha1D; read-out: Kiα1D) was 12.4 nM, the Ki (5-HT1B; read-out: Experimental Receptor Binding Data-Ki 5HT1B, Table 25, GPCR panel) was 306 nM and the “Alpha1B (% inh)” value (Alpha1B) was 104.4 % inh. For the same compound, the Ki (5-HT1D; read-out: Experimental Receptor Binding Data-Ki 5HT1D, Table 25, GPCR panel) was 139 nM and the Ki (5-HT2B; read-out: Experimental Receptor Binding Data-Ki 5HT2B, Table 25, GPCR panel) was 160 nM.
COc1ccc2c(c1)CN(CCCN1CCN(c3ccccc3OC)CC1)C2=O [GFR-VII-290] gave a Ki (α1B (Alpha1B); [1]) of 608 nM, a Ki (α1B (Alpha1B); read-out: Kiα1B) of 608 nM and a Ki (Alpha1D; [2]) of 56 nM. The Ki (Alpha1D; read-out: Kiα1D) was 56 nM, the “Alpha1B (% inh)” value (Alpha1B) was 52.4 % inh and the Ki (5-HT2A) was 1000 nM. It also gave a Ki (5-HT1D) of 829 nM, a Ki (5-HT7) of 732 nM and a Ki (dopamine D1; [3]) of 2730 nM. The Ki (5-HT2B) was 117 nM.
